According to patent US9708314B2, “Heterocyclic amide compound” (NISSAN CHEMICAL INDUSTRIES, LTD., priority 2013, dated 2017):

Experiments:
Format in all cases: in vivo
[1] = system: directly sowed Oryza sativa; experiment: Test Example 3: effect on crop by application to foliage (Wagner pot, water depth 0.1-0.5 cm); conditions: Nineteenth Table; application to foliage; application herbicide amount 320 g/ha
Procedure, shortened: (§1)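 Rice-field weeds and directly sown rice were grown 14 days in flooded alluvial soil (water depth 0.1–0.5 cm) at 25–30 °C in a greenhouse. An emulsion formulation diluted to the stated g/ha rate was sprayed onto stems and leaves. Effects were scored on a 0–5 scale (herbicidal ratio bands) three weeks after treatment.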

[2] = system: Echinochloa oryzacola Vasing.; experiment: Test Example 2: herbicidal activity, application during weed generation in submerged conditions; conditions: Eighteenth Table; application herbicide amount 320 g/ha
Procedure, shortened: (§2)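 Alluvial soil in Wagner pots flooded to 4 cm water depth; seeds sown mixed, grown in greenhouse at 25–30 °C. At one- to two-leaf stage, emulsion diluted with water to the set rate (g/ha) was applied to the water surface. Effect scored 0–5 by herbicidal ratio three weeks later.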

[3] = system: Scirpus juncoides; experiment: as above; conditions: Eighteenth Table; application herbicide amount 320 g/ha
Procedure, shortened: as §2

[4] = system: Monochoria vaginalis; experiment: as above; conditions: Eighteenth Table; application herbicide amount 320 g/ha
Procedure, shortened: as §2

[5] = system: Zea mays; experiment: Test Example 4: effect on crop by application to foliage (diluvial soil, plastic box); conditions: Application herbicide amount 320 g/ha; effect on crop
Procedure, shortened: (§3)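 Scores run from 0 (herbicidal ratio ≤5%) to 5 (≥90%, almost fully withered) and were assessed three weeks after foliar spraying. Seedlings had been raised for 14 days at 25-30° C in sterilized diluvial soil before treatment, with the emulsion diluted in water to the stated g/ha dose.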

[6] = system: Triticum aestivum; experiment: as above; conditions: Application herbicide amount 320 g/ha; effect on crop
Procedure, shortened: as §3

[7] = system: Cyperus difformis; experiment: Test Example 3: herbicidal effect by application to foliage (Wagner pot, water depth 0.1-0.5 cm); conditions: Nineteenth Table; application to foliage; application herbicide amount 320 g/ha
Procedure, shortened: as §1

[8] = system: Leptochloa chinensis; experiment: as above; conditions: Nineteenth Table; application to foliage; application herbicide amount 320 g/ha
Procedure, shortened: as §1

[9] = system: Echinochloa crus-galli var. crus-galli; experiment: as above; conditions: Nineteenth Table; application to foliage; application herbicide amount 320 g/ha
Procedure, shortened: as §1

Compound | b (effect on crop grade) [1] | A (Echinochloa oryzicola Vasing.) herbicidal ratio grade [2] | B (Scirpus juncoides) herbicidal ratio grade [3] | C (Monochoria vaginalis) herbicidal ratio grade [4] | b [5] | e [6] | E (herbicidal effect grade) [7] | D (herbicidal effect grade) [8] | H (herbicidal effect grade) [9]
COCC[S+]([O-])c1nnc2c(C(=O)Nc3nnc(C)o3)ccc(C(F)(F)F)n12 (stereo not drawn) [1-073] | 4 (Herbicidal ratio of 70% or more and less than 90%) | 2 (Herbicidal ratio of 20% or more and less than 40%) | 2 (Herbicidal ratio of 20% or more and less than 40%) | 1 (Herbicidal ratio of 5% or more and less than 20%) | 5 (Herbicidal ratio of 90% or more (almost completely withered)) | 3 (Herbicidal ratio of 40% or more and less than 70%) | 5 (Herbicidal ratio of 90% or more (almost completely withered)) | 5 (Herbicidal ratio of 90% or more (almost completely withered)) | 5 (Herbicidal ratio of 90% or more (almost completely withered))
C=CC[S+]([O-])c1nnc2c(C(=O)Nc3nnc(C)o3)ccc(C(F)(F)F)n12 (stereo not drawn) [1-074] | 0 (Herbicidal ratio of 5% or less (almost no effect)) | 2 (Herbicidal ratio of 20% or more and less than 40%) | 0 (Herbicidal ratio of 5% or less (almost no effect)) | 0 (Herbicidal ratio of 5% or less (almost no effect)) | 0 (Herbicidal ratio of 5% or less (almost no effect)) | 0 (Herbicidal ratio of 5% or less (almost no effect)) | 3 (Herbicidal ratio of 40% or more and less than 70%) | 4 (Herbicidal ratio of 70% or more and less than 90%) | 5 (Herbicidal ratio of 90% or more (almost completely withered))
Cc1nnc(NC(=O)c2ccc(C(F)(F)F)n3c(N(C)C)nnc23)o1 [1-076] | 3 (Herbicidal ratio of 40% or more and less than 70%) | 2 (Herbicidal ratio of 20% or more and less than 40%) | 0 (Herbicidal ratio of 5% or less (almost no effect)) | 4 (Herbicidal ratio of 70% or more and less than 90%) | 0 (Herbicidal ratio of 5% or less (almost no effect)) | 3 (Herbicidal ratio of 40% or more and less than 70%) | 5 (Herbicidal ratio of 90% or more (almost completely withered)) | 5 (Herbicidal ratio of 90% or more (almost completely withered)) | 5 (Herbicidal ratio of 90% or more (almost completely withered))
CSC(C)c1nnc2c(C(=O)Nc3nnc(C)o3)ccc(C(F)(F)F)n12 (stereo not drawn) [1-078] | 5 (Herbicidal ratio of 90% or more (almost completely withered)) | 4 (Herbicidal ratio of 70% or more and less than 90%) | 3 (Herbicidal ratio of 40% or more and less than 70%) | 3 (Herbicidal ratio of 40% or more and less than 70%) | 4 (Herbicidal ratio of 70% or more and less than 90%) | 4 (Herbicidal ratio of 70% or more and less than 90%) | 5 (Herbicidal ratio of 90% or more (almost completely withered)) | 5 (Herbicidal ratio of 90% or more (almost completely withered)) | 5 (Herbicidal ratio of 90% or more (almost completely withered))
Cc1nnc(NC(=O)c2ccc(C(F)(F)F)n3c(C(C)[S+](C)[O-])nnc23)o1 (stereo not drawn) [1-079] | 5 (Herbicidal ratio of 90% or more (almost completely withered)) | 4 (Herbicidal ratio of 70% or more and less than 90%) | 3 (Herbicidal ratio of 40% or more and less than 70%) | 4 (Herbicidal ratio of 70% or more and less than 90%) | 4 (Herbicidal ratio of 70% or more and less than 90%) | 4 (Herbicidal ratio of 70% or more and less than 90%) | 5 (Herbicidal ratio of 90% or more (almost completely withered)) | 5 (Herbicidal ratio of 90% or more (almost completely withered)) | 5 (Herbicidal ratio of 90% or more (almost completely withered))
Cc1nnc(NC(=O)c2ccc(C(F)(F)F)n3c(C(C)S(C)(=O)=O)nnc23)o1 (stereo not drawn) [1-080] | 5 (Herbicidal ratio of 90% or more (almost completely withered)) | 5 (Herbicidal ratio of 90% or more (almost completely withered)) | 3 (Herbicidal ratio of 40% or more and less than 70%) | 4 (Herbicidal ratio of 70% or more and less than 90%) | 4 (Herbicidal ratio of 70% or more and less than 90%) | 5 (Herbicidal ratio of 90% or more (almost completely withered)) | 5 (Herbicidal ratio of 90% or more (almost completely withered)) | 5 (Herbicidal ratio of 90% or more (almost completely withered)) | 5 (Herbicidal ratio of 90% or more (almost completely withered))
CSCCc1nnc2c(C(=O)Nc3nnc(C)o3)ccc(C(F)(F)F)n12 [1-083] | 2 (Herbicidal ratio of 20% or more and less than 40%) | 2 (Herbicidal ratio of 20% or more and less than 40%) | 2 (Herbicidal ratio of 20% or more and less than 40%) | 2 (Herbicidal ratio of 20% or more and less than 40%) | 1 (Herbicidal ratio of 5% or more and less than 20%) | 1 (Herbicidal ratio of 5% or more and less than 20%) | 5 (Herbicidal ratio of 90% or more (almost completely withered)) | 5 (Herbicidal ratio of 90% or more (almost completely withered)) | 5 (Herbicidal ratio of 90% or more (almost completely withered))
Cc1nnc(NC(=O)c2ccc(C(F)(F)F)n3c(CC[S+](C)[O-])nnc23)o1 (stereo not drawn) [1-084] | 2 (Herbicidal ratio of 20% or more and less than 40%) | 2 (Herbicidal ratio of 20% or more and less than 40%) | 1 (Herbicidal ratio of 5% or more and less than 20%) | 0 (Herbicidal ratio of 5% or less (almost no effect)) | 3 (Herbicidal ratio of 40% or more and less than 70%) | 0 (Herbicidal ratio of 5% or less (almost no effect)) | 5 (Herbicidal ratio of 90% or more (almost completely withered)) | 5 (Herbicidal ratio of 90% or more (almost completely withered)) | 5 (Herbicidal ratio of 90% or more (almost completely withered))
Cc1nnc(NC(=O)c2ccc(C(F)(F)F)n3c(CCS(C)(=O)=O)nnc23)o1 [1-085] | 3 (Herbicidal ratio of 40% or more and less than 70%) | 3 (Herbicidal ratio of 40% or more and less than 70%) | 2 (Herbicidal ratio of 20% or more and less than 40%) | 2 (Herbicidal ratio of 20% or more and less than 40%) | 3 (Herbicidal ratio of 40% or more and less than 70%) | 3 (Herbicidal ratio of 40% or more and less than 70%) | 5 (Herbicidal ratio of 90% or more (almost completely withered)) | 5 (Herbicidal ratio of 90% or more (almost completely withered)) | 5 (Herbicidal ratio of 90% or more (almost completely withered))
Cc1nnc(NC(=O)c2ccc(C(F)(F)F)n3c(N(C)c4ccccc4)nnc23)o1 [1-086] | 0 (Herbicidal ratio of 5% or less (almost no effect)) | 4 (Herbicidal ratio of 70% or more and less than 90%) | 4 (Herbicidal ratio of 70% or more and less than 90%) | 4 (Herbicidal ratio of 70% or more and less than 90%) | 1 (Herbicidal ratio of 5% or more and less than 20%) | 0 (Herbicidal ratio of 5% or less (almost no effect)) | 5 (Herbicidal ratio of 90% or more (almost completely withered)) | 5 (Herbicidal ratio of 90% or more (almost completely withered)) | 5 (Herbicidal ratio of 90% or more (almost completely withered))
Cc1nnc(NC(=O)c2ccc(C(F)(F)F)n3c(NC(C)C)nnc23)o1 [1-090] | 0 (Herbicidal ratio of 5% or less (almost no effect)) | 2 (Herbicidal ratio of 20% or more and less than 40%) | 1 (Herbicidal ratio of 5% or more and less than 20%) | 3 (Herbicidal ratio of 40% or more and less than 70%) | 0 (Herbicidal ratio of 5% or less (almost no effect)) | 0 (Herbicidal ratio of 5% or less (almost no effect)) | 5 (Herbicidal ratio of 90% or more (almost completely withered)) | 5 (Herbicidal ratio of 90% or more (almost completely withered)) | 5 (Herbicidal ratio of 90% or more (almost completely withered))
